In patent publication US10166217B2, “Fungal keratitis prophylactic or therapeutic agent” (SANTEN PHARMACEUTICAL CO., LTD., priority 2015, dated 2019):

System: C. albicans
Assay: Test to evaluate pharmacological effect of rapamycin on animal (rabbit) model of keratomycosis
Format: in vivo, New Zealand white rabbit
Experimental: Test to evaluate pharmacological effect of rapamycin on animal (rabbit) model of keratomycosis
4% (w/w) rapamycin solution: This sample was prepared by dissolving rapamycin (Chunghwa Chemical Synthesis & Biotech Co., Ltd.) in a solution containing 4% (w/w) ethanol and […] polyethylene glycol 400.
About 10 μL of a C. albicans solution (1×10^4 CFU/mL to 5×10^4 CFU/mL) was administered to the central corneal stroma of the right eye of a male New Zealand white rabbit of about 3 kg, and thereby an animal (rabbit) model of keratomycosis was prepared (Cornea, Volume 26, Number 3, 336-342, April 2007).
For a base administered group (Group 1; N=4), 20 μL of a base (a solution containing 4% (w/w) ethanol and 96% (w/w) polyethylene glycol 400) was administered subconjunctivally on the day of induction.
For a rapamycin administered group (Group 2; N=4), 20 μL of a 4% (w/w) rapamycin solution (0.88 mg rapamycin) was administered subconjunctivally on the day of induction.

## CO[C@H]1C[C@@H]2CC[C@@H](C)[C@@](O)(O2)C(=O)C(=O)N2CCCC[C@H]2C(=O)O[C@H]([C@H](C)C[C@@H]2CC[C@@H](O)[C@H](OC)C2)CC(=O)[C@H](C)/C=C(\C)[C@@H](O)[C@@H](OC)C(=O)[C@H](C)C[C@H](C)/C=C/C=C/C=C/1C [rapamycin]
20 μL of 4% (w/w) rapamycin solution (0.88 mg rapamycin), single subconjunctival administration on day of induction, right eye, post-induction days 2 and 5, compared with base administered group, N=4
  clinical scores (McDonald-Shadduck scoring system, slit lamp): lower than those of the base administered group
Single subconjunctival administration of an injection containing rapamycin, polyethylene glycol and ethanol, rabbit C. albicans keratomycosis model
  duration for which remarkable therapeutic effect on keratomycosis is maintained: at least 5 days
